Test: Salt/co-crystal screening: 38 acids, eight solvent systems, solids analysed by XRPD
Type: physicochemical
Conditions: acid/freebase charge 1:1 unless label says 2:1, stirred at RT, else 5° C. slurry, anti-solvent addition or evaporation (footnote marks)
Description: XRPD analysis was performed with a Panalytical X'Pert^3 Powder XRPD on a Si zero-background holder. The 2θ position was calibrated against Panalytical Si reference standard disc.
A total of 320 salt/co-crystal screening experiments were conducted using 38 acids (two molar ratios for HCl and HBr) and eight solvent systems. Specifically, freebase stock solutions of ˜100 mg/mL were first prepared in each solvent system. For each experiment, 0.2 mL stock solution and the corresponding acids were mixed in a molar charge ratio of 1:1 (acid/freebase, 2:1 for HCl/freebase and HBr/freebase as well), and then stirred at RT. After stirring for 3-5 days, if precipitation was observed, the precipitate was isolated. It no precipitation, the clear solutions were first transferred to slurry at 5° C. to introduce precipitation. Solutions without any precipitation were further subjected to anti-solvent addition (for solvents in column B/D, 0.5 mL hexane was added; for solvents in column G/H, 0.5 mL water was added; for solvent in column F, 0.5 mL n-heptane was added). If still no precipitation, the final clear solutions were transferred to evaporation at RT to induce precipitation. All solids isolated were vacuum dried at RT for 2 hrs before XRPD analysis.

SMILES | Solid obtained in salt screening (XRPD), solvent D Acetone/Hexane (1:2, v/v) | Solid obtained in salt screening (XRPD), solvent H Dioxane/H2O (9:1, v/v) | Solid obtained in salt screening (XRPD), solvent A Ethanol | Solid obtained in salt screening (XRPD), solvent B Ethyl acetate/Hexane (1:2, v/v) | Solid obtained in salt screening (XRPD), solvent G Methanol/H2O (19:1, v/v) | Solid obtained in salt screening (XRPD), solvent F Methyl tertbutyl ether | Solid obtained in salt screening (XRPD), solvent C THF | Solid obtained in salt screening (XRPD), solvent E Toluene
O=C(O)CCCC(=O)O [Glutaric acid] | amorphous* | amorphous* | gel* | amorphous* | amorphous* | amorphous^& | gel* | gel*
O=S(=O)(O)O [H2SO4] | gel | gel* | gel* | gel | gel* | – | gel | amorphous*
O=C(O)/C=C/c1ccccc1 [trans Cinnamic acid] | gel | amorphous* | amorphous | gel | amorphous* | amorphous* | gel | gel
CCC(=O)O [Propionic acid] | gel* | amorphous* | gel* | FB Type A | FB Type A^& | FB Type B* | gel* | gel*
CS(=O)(=O)O [Methane sulfonic acid] | gel | gel* | gel* | – | gel* | amorphous | gel | gel*
O=C(O)CNC(=O)c1ccccc1 [Hippuric acid] | amorphous* | amorphous* | gel* | – | amorphous* | – | gel* | gel*
O=C(O)/C=C\C(=O)O [Maleic acid] | – | amorphous* | gel* | – | amorphous* | – | gel* | gel*
O=C(O)C(O)C(O)C(=O)O [L-tartartic acid] | – | – | – | – | amorphous* | – | – | –
O=C(O)[C@H](O)[C@@H](O)[C@H](O)[C@H](O)CO [Gluconic acid] | amorphous^& | amorphous* | amorphous* | gel* | amorphous* | amorphous | amorphous* | gel
CCCCCCCCCCCCCCCC(=O)O [Palmitic acid] | gel* | gel* | gel* | gel* | FB Type A^& | gel* | gel* | gel*
O=C1NS(=O)(=O)c2ccccc21 [Saccharin] | gel | amorphous* | amorphous* | – | – | – | gel | gel
CCCCCCCCCCCCCCCCCC(=O)O [Stearic acid] | – | amorphous^& | – | – | – | FB Type A* | – | –
COc1cc(C(=O)O)ccc1O [Vanillic acid] | – | amorphous* | amorphous | – | amorphous* | – | gel | gel
O=C(O)CCC(=O)O [Succnic acid] | amorphous* | amorphous* | gel* | amorphous* | amorphous* | FB Type B* | gel* | gel*
O=C(O)CC(=O)O [Malonic acid] | amorphous* | amorphous* | gel* | amorphous* | amorphous* | gel* | gel* | gel*
